Measured values: patent US11866720B2, “Transgenic or non-transgenic plants with mutated protoporphyrinogen oxidase having increased tolerance to herbicides” (priority 2013, dated 2024)
“And” between values parts separate entries of the source, which are not always exact repeats. Identical values can stand only once. Like-named read-outs stand apart in the source and are kept apart here.

Legend:
[1] = tested on: transgenic Arabidopsis thaliana plants expressing wildtype or mutated PPO; experiment: Germination / growth inhibition assay of transgenic Arabidopsis T2 seeds in 48-well plates; conditions: growth inhibition seven to ten days after seeding
[2] = tested on: transgenic soybean expressing mutated PPO; experiment: Soybean segregating T1 individuals, greenhouse spray test (injury 0-9); assay type: in vivo, Glycine max; conditions: 1 week after treatment
[3] = tested on: transgenic soybean expressing mutated PPO; assay type: in vivo, Glycine max; conditions: T1 soybean, field, 3 days after treatment; for injury (1-5 point scale): benzoxazin 50 g ai/ha; as to injury (1-5 point scale): key: 1: no obvious damage (no phytotoxicity); 2: minor amount of leaf damage, plant will survive; 3: moderate amount of leaf damage, plant will survive; 4: severe amount of leaf damage, plant will survive; 5: no surviving plants - all plants dead/dying

For `CCOC(=O)C(C)OC(=O)c1cc(Oc2ccc(C(F)(F)F)cc2Cl)ccc1[N+](=O)[O-]` (stereo not drawn) [Lactofen, lactofen], which “Relative tolerance rate as compared to a non-transgenic Arabidopsis plant (non-transgenic = 1.0)” value (“Relative tolerance rate … (non-transgenic = 1.0)” below) ([1]; transgenic Arabidopsis AMATU_PPO2_F420I) is on record?
The value was 17.

What about the “Relative tolerance rate … (non-transgenic = 1.0)” value ([1]; transgenic Arabidopsis AMATU_PPO2_F420L) of the same compound?
The value was 19.

What about the “Relative tolerance rate … (non-transgenic = 1.0)” value ([1]; transgenic Arabidopsis AMATU_PPO2_F420M) of the same compound?
Its value is 29.

And the “Relative tolerance rate … (non-transgenic = 1.0)” value ([1]; transgenic Arabidopsis AMATU_PPO2_R128A_F420I)?
Its value is 27.

And the “Relative tolerance rate … (non-transgenic = 1.0)” value ([1]; transgenic Arabidopsis AMATU_PPO2_R128A_F420L)?
The value was 29.

And the “Relative tolerance rate … (non-transgenic = 1.0)” value ([1]; transgenic Arabidopsis AMATU_PPO2_R128A_F420M)?
The value was 29.

What about the “Relative tolerance rate … (non-transgenic = 1.0)” value ([1]; transgenic Arabidopsis AMATU_PPO2_R128L) of the same compound?
The value was 22.

And the “Relative tolerance rate … (non-transgenic = 1.0)” value ([1]; transgenic Arabidopsis AMATU_PPO2_dG210)?
The value was 19.

And the “Relative tolerance rate … (non-transgenic = 1.0)” value ([1]; transgenic Arabidopsis AMATU_PPO2_dG210_R128L)?
The value was 29.

What about the “Relative tolerance rate … (non-transgenic = 1.0)” value ([1]; transgenic Arabidopsis AMATU_PPO2_wt) of the same compound?
The value was 8.

How did the “injury (0-9 point scale)” value ([2]; SDS10791 AmtuPPX2L R128A_F420I, Oxyfluorfen 600 g ai/ha) turn out when `CCOc1cc(Oc2ccc(C(F)(F)F)cc2Cl)ccc1[N+](=O)[O-]` [Oxyfluorfen] was run?
The value was 4 (3×) and 8 and 5 (3×) and 3.

And the “injury (0-9 point scale)” value ([2]; SDS10791 AmtuPPX2L R128A_F420I, Oxyfluorfen 1200 g ai/ha)?
Its value is 9 (2×) and 4 (2×) and 5 (4×).

What about the “injury (0-9 point scale)” value ([2]; SDS-10642 AmtuPPX2L R128A_F420L, Oxyfluorfen 600 g ai/ha) of the same compound?
The value was 2 (3×) and 4 and 3 (3×) and 8.

And the “injury (0-9 point scale)” value ([2]; SDS-10648 AmtuPPX2L R128A_F420I, Oxyfluorfen 600 g ai/ha)?
Its value is 5 and 7 and 6 (2×) and 8 (2×) and 9 and 3.

And the “injury (0-9 point scale)” value ([2]; SDS-10648 AmtuPPX2L R128A_F420I, Oxyfluorfen 1200 g ai/ha)?
Its value is 5 (3×) and 9 (4×) and 4.

And the “injury (0-9 point scale)” value ([2]; SDS-10652 AmtuPPX2L L397D_F420V, Oxyfluorfen 600 g ai/ha)?
Its value is 4 (3×) and 5 and 6 (2×) and 9.

What about the “injury (0-9 point scale)” value ([2]; SDS-10787 AmtuPPX2L R128A_F420L, Oxyfluorfen 600 g ai/ha) of the same compound?
Its value is 6 (3×) and 5 (2×) and 8.

And the “injury (0-9 point scale)” value ([2]; SDS-10985 AmtuPPX2L R128A_F420M, Oxyfluorfen 600 g ai/ha)?
Its value is 1 and 3 (3×) and 4 (3×) and 9.

And the “injury (0-9 point scale)” value ([2]; SDS-10985 AmtuPPX2L R128A_F420M, Oxyfluorfen 1200 g ai/ha)?
The value was 5 (3×) and 4 (3×) and 8 (2×).

And the “injury (0-9 point scale)” value ([2]; SDS-10990 AmtuPPX2L R128A_F420M, Oxyfluorfen 600 g ai/ha)?
The value was 4 (4×) and 8 and 3 and 9 and 5.

And the “injury (0-9 point scale)” value ([2]; SDS-10990 AmtuPPX2L R128A_F420M, Oxyfluorfen 1200 g ai/ha)?
Its value is 9 and 5 (5×) and 4 (2×).

What about the “injury (0-9 point scale)” value ([2]; SDS-11034 AmtuPPX2L R128A_F420V, Oxyfluorfen 600 g ai/ha) of the same compound?
The value was 4 (3×) and 9 and 5 (3×).

What about the “injury (0-9 point scale)” value ([2]; wild type, Oxyfluorfen 600 g ai/ha) of the same compound?
The value was 8 (3×) and 7 (3×) and 9 (2×).

What does the source list for `C#CCN1C(=O)COc2cc(F)c(N3C(=O)C4=C(CCCC4)C3=O)cc21` [Flumioxazin, flumioxazin]?
injury (0-9 point scale) ([2]; SDS10791 AmtuPPX2L R128A_F420I, Flumioxazin 150 g ai/ha): 3 (5×) and 1 (3×); injury (0-9 point scale) ([2]; SDS-10642 AmtuPPX2L R128A_F420L, Flumioxazin 150 g ai/ha): 3 (3×) and 2 (2×) and 1 (2×) and 9; injury (0-9 point scale) ([2]; SDS-10648 AmtuPPX2L R128A_F420I, Flumioxazin 150 g ai/ha): 9 (5×) and 5 (3×); injury (0-9 point scale) ([2]; SDS-10652 AmtuPPX2L L397D_F420V, Flumioxazin 150 g ai/ha): 9 and 6 (3×) and 5 (2×) and 4 (2×); injury (0-9 point scale) ([2]; SDS-10787 AmtuPPX2L R128A_F420L, Flumioxazin 150 g ai/ha): 9 (2×) and 5 (4×) and 4 (2×); injury (0-9 point scale) ([2]; SDS-10985 AmtuPPX2L R128A_F420M, Flumioxazin 150 g ai/ha): 9 (3×) and 6 (2×) and 4 (2×) and 5; injury (0-9 point scale) ([2]; SDS-10990 AmtuPPX2L R128A_F420M, Flumioxazin 150 g ai/ha): 6 (5×) and 5 (2×) and 9; injury (0-9 point scale) ([2]; SDS-11034 AmtuPPX2L R128A_F420V, Flumioxazin 150 g ai/ha): 5 (3×) and 4 and 6 (2×) and 9 and 3; injury (0-9 point scale) ([2]; wild type, Flumioxazin 150 g ai/ha): 9

Which results are given for `C1=Cc2ccccc2ON1` [benzoxazin]?
Injury rating (1-5 point scale) ([3]; SDS-10562 LTM377-1 AmtuPPX2L_dG210, benzoxazin (50 gai/ha)): 3; Injury rating (1-5 point scale) ([3]; SDS-10562 LTM377-1 AmtuPPX2L_dG210, benzoxazin (100 gai/ha)): 3; Injury rating (1-5 point scale) ([3]; SDS-10566 LTM377-1 AmtuPPX2L_dG210, benzoxazin (50 gai/ha)): 3; Injury rating (1-5 point scale) ([3]; SDS-10566 LTM377-1 AmtuPPX2L_dG210, benzoxazin (100 gai/ha)): 3; injury (1-5 point scale) ([3]; SDS-10648 AmtuPPX2L R128A_F420I): 3; Injury rating (1-5 point scale) ([3]; SDS-10656 LTM377-1 AmtuPPX2L_dG210, benzoxazin (50 gai/ha)): 4; Injury rating (1-5 point scale) ([3]; SDS-10656 LTM377-1 AmtuPPX2L_dG210, benzoxazin (100 gai/ha)): 4; injury (1-5 point scale) ([3]; SDS-10791 AmtuPPX2L R128A_F420I): 2; Injury rating (1-5 point scale) ([3]; SDS-10998 LTM387-1 AmtuPPX2L_R128A_F420V, benzoxazin (50 gai/ha)): 2.5; Injury rating (1-5 point scale) ([3]; SDS-10998 LTM387-1 AmtuPPX2L_R128A_F420V, benzoxazin (100 gai/ha)): 2.5; injury (1-5 point scale) ([3]; SDS-11014 AmtuPPX2L R128A_F420I): 2; injury (1-5 point scale) ([3]; SDS-11034 AmtuPPX2L L397D_F420V): 2; Injury rating (1-5 point scale) ([3]; SDS-11034 LTM387-1 AmtuPPX2L_R128A_F420V, benzoxazin (50 gai/ha)): 2; Injury rating (1-5 point scale) ([3]; SDS-11034 LTM387-1 AmtuPPX2L_R128A_F420V, benzoxazin (100 gai/ha)): 2; injury (1-5 point scale) ([3]; SDS-11035 AmtuPPX2L R128A_F420V): 2; Injury rating (1-5 point scale) ([3]; SDS-11035 LTM387-1 AmtuPPX2L_R128A_F420V, benzoxazin (50 gai/ha)): 2; Injury rating (1-5 point scale) ([3]; SDS-11035 LTM387-1 AmtuPPX2L_R128A_F420V, benzoxazin (100 gai/ha)): 2; injury (1-5 point scale) ([3]; SDS-11052 AmtuPPX2L R128A_F420M): 3; Injury rating (1-5 point scale) ([3]; SDS-11105 LTM387-1 AmtuPPX2L_R128A_F420V, benzoxazin (50 gai/ha)): 3; Injury rating (1-5 point scale) ([3]; SDS-11105 LTM387-1 AmtuPPX2L_R128A_F420V, benzoxazin (100 gai/ha)): 3; Injury rating (1-5 point scale) ([3]; SDS-11110 LTM387-1 AmtuPPX2L_R128A_F420V, benzoxazin (50 gai/ha)): 3; Injury rating (1-5 point scale) ([3]; SDS-11110 LTM387-1 AmtuPPX2L_R128A_F420V, benzoxazin (100 gai/ha)): 3; Injury rating (1-5 point scale) ([3]; Wildtype Jake, benzoxazin (50 gai/ha)): 5; Injury rating (1-5 point scale) ([3]; Wildtype Jake, benzoxazin (100 gai/ha)): 5; injury (1-5 point scale) ([3]; wild type): 5
